# Where two headings read alike, the source gives them in different places.
# Experiments:
# T98G [1] = assay: cells; details: Homo sapiens, 48 h, read-out: Cytotoxic Effects (IC50)
# [2] = system: Candida albicans ATCC 10231; assay: Antimicrobial activity, serial microdilutions, Ca; format: cell-based; design: key to Minimum Inhibitory Concentration (MIC) / Minimum bactericidal and fungicidal concentrations (MBC, MFC): – means non-active; details: for Minimum bactericidal and fungicidal concentrations (MBC, MFC) / Minimum Inhibitory Concentration (MIC): Ca; for MIC: read-out: Minimum Inhibitory Concentration (MIC)
# Procedure: (§1) The antimicrobial activity of test compounds was determined by serial microdilutions in 96-well plates using Mueller-Hinton broth for bacterial culture and Sabouraud broth for yeast culture. Cultures of Gram-positive bacteria were used in the experiment: Staphylococcus aureus ATCC 6538 P FDA 209P, Bacillus cereus ATCC 10702 NCTC 8035, Enterococcus faecalis ATCC 29212; Gram-negative bacteria: Escherichia coli ATCC 25922, Pseudomonas aeruginosa ATCC 9027; and yeast: Candida albicans ATCC 10231, purchased from the State Collection of Pathogenic Microorganisms and Cell Cultures “SCPM-Obolensk” (Obolensk, Russia). Methicillin-resistant strains of S. aureus (MRSA) were isolated from patients with chronic tonsillitis (MRSA-1) and sinusitis (MRSA-2) in the bacteriological laboratory of the Republican Clinical Hospital (Kazan, Russia). The experiments were carried out in triplicate.
# SK-OV-3 [3] = assay: cells; details: Homo sapiens, SK-OV-3, 48 h, read-out: Cytotoxic Effects (IC50)
# MCF-7 [4] = assay: cells; details: Homo sapiens, MCF7, 48 h, read-out: Cytotoxic Effects (IC50)
# DU-145 [5] = system: DU-145
# [6] = system: Bacillus cereus ATCC 10702 NCTC 8035; assay: Antimicrobial activity, serial microdilutions, Bc; format: cell-based; design: key to Minimum bactericidal and fungicidal concentrations (MBC, MFC): – means non-active; details: for MIC / MBC: Bacillus cereus; for MIC: read-out: Minimum Inhibitory Concentration (MIC); for MBC: read-out: Minimum bactericidal and fungicidal concentrations (MBC, MFC)
# Procedure: as §1
# M-HeLa [7] = assay: cells; details: Homo sapiens, 48 h, read-out: Cytotoxic Effects (IC50)
# Hep G2 [8] = system: Hep G2
# DU-145 [9] = assay: cells; details: Homo sapiens, DU-145, 48 h
# A549 [10] = details: reference normal cell line not marked at the place (ns cells)
# [11] = system: Pseudomonas aeruginosa ATCC 9027; assay: Antimicrobial activity, serial microdilutions, Pa; format: cell-based; design: key to Minimum Inhibitory Concentration (MIC) / Minimum bactericidal and fungicidal concentrations (MBC, MFC): – means non-active; details: for MIC / MBC: Pseudomonas aeruginosa; for MIC: ATCC9027, read-out: Minimum Inhibitory Concentration (MIC); for MBC: ATCC9027, read-out: Minimum bactericidal and fungicidal concentrations (MBC, MFC)
# Procedure: as §1
# T98G [12] = details: calculated relative to the cell line WI38 (a)
# HuTu 80 [13] = assay: cells; details: Homo sapiens, HuTu80, 48 h, read-out: Cytotoxic Effects (IC50)
# MRSA-2 = assay: Antimicrobial activity, serial microdilutions, MRSA-2; format: cell-based, S. aureus; details: Staphylococcus aureus; for MIC: read-out: Minimum Inhibitory Concentration (MIC); for MBC: read-out: Minimum bactericidal and fungicidal concentrations (MBC, MFC)
# Procedure: as §1
# MRSA-1 = assay: Antimicrobial activity, serial microdilutions, MRSA-1; format: cell-based, S. aureus; design: key to Minimum Inhibitory Concentration (MIC) / Minimum bactericidal and fungicidal concentrations (MBC, MFC): – means non-active; details: for MIC / MBC: Staphylococcus aureus; for MIC: read-out: Minimum Inhibitory Concentration (MIC); for MBC: read-out: Minimum bactericidal and fungicidal concentrations (MBC, MFC)
# Procedure: as §1
# PANC-1 [14] = details: calculated relative to the cell line WI38 (a)
# A549 [15] = assay: cells; details: Homo sapiens, A549, 48 h, read-out: Cytotoxic Effects (IC50)
# MCF-7 [16] = details: calculated relative to the cell line WI38 (a)
# [17] = system: Escherichia coli ATCC 25922; assay: Antimicrobial activity, serial microdilutions, Ec; format: cell-based; design: key to Minimum Inhibitory Concentration (MIC) / Minimum bactericidal and fungicidal concentrations (MBC, MFC): – means non-active; details: for MIC / MBC: Escherichia coli; for MIC: ATCC25922, read-out: Minimum Inhibitory Concentration (MIC); for MBC: ATCC25922, read-out: Minimum bactericidal and fungicidal concentrations (MBC, MFC)
# Procedure: as §1
# [18] = system: Staphylococcus aureus ATCC 6538 P FDA 209P; assay: Antimicrobial activity, serial microdilutions, Sa; format: cell-based; details: Staphylococcus aureus; for MIC: read-out: Minimum Inhibitory Concentration (MIC); for MBC: read-out: Minimum bactericidal and fungicidal concentrations (MBC, MFC)
# Procedure: as §1
# Hep G2 [19] = assay: cells; details: Homo sapiens, HepG2, 48 h, read-out: Cytotoxic Effects (IC50)
# PANC-1 [20] = assay: cells; details: Homo sapiens, PANC-1, 48 h, read-out: Cytotoxic Effects (IC50)
# [21] = system: Enterococcus faecalis ATCC 29212; assay: Antimicrobial activity, serial microdilutions, Ef; format: cell-based; design: key to Minimum Inhibitory Concentration (MIC) / Minimum bactericidal and fungicidal concentrations (MBC, MFC): – means non-active; details: for MIC: ATCC29212, read-out: Minimum Inhibitory Concentration (MIC)
# Procedure: as §1
# SK-OV-3 [22] = system: SK-OV-3
# PC3 [23] = assay: cells; details: Homo sapiens, PC-3, 48 h, read-out: Cytotoxic Effects (IC50), PC3, MTT assay, 48 h
# PC3 [24] = details: calculated relative to the cell line WI38 (a)
# HuTu 80 [25] = details: calculated relative to the cell line WI38 (a)
# M-HeLa [26] = details: calculated relative to the cell line WI38 (a)
# [27] = calculated relative to the cell line WI38 (a)
# [28] = read-out: Cytotoxic Effects (IC50), DU-145, MTT assay, 48 h
# [29] = reference normal cell line not marked at the place (ns cells)
Compound,IC50 (T98G [1]),"Minimum bactericidal and fungicidal concentrations (MBC, MFC) [2]","MIC ([2]; Candida albicans, ATCC10231)",IC50 (SK-OV-3 [3]),IC50 (MCF-7 [4]),MIC ([6]; Bc),MBC [6],IC50 (M-HeLa [7]),IC50 (DU-145 [9]; [28]),MIC [11],MBC [11],IC50 (HuTu 80 [13]),MIC (MRSA-2),MBC (MRSA-2),MIC (MRSA-1),IC50 (A549 [15]),MIC [18],MBC [18],IC50 (Hep G2 [19]),IC50 (PANC-1 [20]),other results
"CCCCCCCCC[P+](c1ccccc1)(c1ccccc1)N(CC)CC [6c, (Diethylamino)(nonyl)diphenylphosphonium iodide]",2.4 ± 0.1 µM,–,500 ± 47 µM,12.7 ± 1.1 µM,4.2 ± 0.3 µM,1.9 ± 0.1 µM,> 500 µM,0.9 ± 0.07 µM,1.3 ± 0.1 µM,250 ± 21 µM,250 ± 21 µM,0.2 ± 0.01 µM,3.9 ± 0.4 µM,7.8 ± 0.7 µM,3.9 ± 0.3 µM,11.4 ± 0.9 µM,3.9 ± 0.3 µM,125 ± 11 µM,6.2 ± 0.5 µM,1.3 ± 0.1 µM,"selectivity index (SI) (DU-145 [5]; [27]): 6.4; selectivity index (SI) (Hep G2 [8]; [27]): 1.3; selectivity index (SI) (A549 [10]): ns (ns—no selectivity); selectivity index (SI) (T98G [12]): 3.5; MBC (MRSA-1): 62.5 ± 5.4 µM; selectivity index (SI) (PANC-1 [14]): 6.4; selectivity index (SI) (MCF-7 [16]): 2.0; MIC [17]: 500 ± 46 µM; MBC [17]: 500 ± 47 µM; Minimum bactericidal and fungicidal concentrations (MBC, MFC) [21]: –; MIC ([21]; Enterococcus faecalis): 31.3 ± 5.4 µM; selectivity index (SI) (SK-OV-3 [22]; [29]): ns (ns—no selectivity); IC50 (PC3 [23]): 1 ± 0.08 µM; selectivity index (SI) (PC3 [24]): 8.3; selectivity index (SI) (HuTu 80 [25]): 42"
"CC(=O)N1CCN(c2ccc(OCC3COC(Cn4ccnc4)(c4ccc(Cl)cc4Cl)O3)cc2)CC1 (stereo not drawn) [Ketoconazole, reference compound]",,,7.3 ± 0.5 µM,,,,,,,,,,,,,,,,,,"MBC ([2]; Candida albicans, ATCC10231, read-out: Minimum bactericidal and fungicidal concentrations (MBC, MFC)): 7.3 ± 0.5 µM; Minimum Inhibitory Concentration (MIC) [17]: –"
"CCn1cc(C(=O)O)c(=O)c2cc(F)c(N3CCNCC3)cc21 [Norfloxacin, reference compound]",,,,,,24.4 ± 2.1 µM,24.4 ± 2.1 µM,,,12.1 ± 1.1 µM,49 ± 4.2 µM,,7.5 ± 0.5 µM,7.5 ± 0.6 µM,,,7.5 ± 0.5 µM,7.5 ± 0.6 µM,,,"Minimum Inhibitory Concentration (MIC) [2]: –; Minimum Inhibitory Concentration (MIC) (MRSA-1): –; Minimum bactericidal and fungicidal concentrations (MBC, MFC) (MRSA-1): –; MIC [17]: 4.7 ± 0.02 µM; MBC [17]: 24.4 ± 2.3 µM; MIC ([21]; Enterococcus faecalis): 24.4 ± 2.2 µM; MBC ([21]; Enterococcus faecalis, ATCC29212, read-out: Minimum bactericidal and fungicidal concentrations (MBC, MFC)): 24.4 ± 1.9 µM"
"CCN(CC)[P+](CCCCCC[P+](N(CC)CC)(N(CC)CC)N(CC)CC)(N(CC)CC)N(CC)CC [compound 9, 1,6-Hexanediyl-bis(hexaethyltriaminophosphonium)dibromide]",> 100 µM,–,,36.4 ± 4.7 µM,37.8 ± 4.8 µM,274 ± 48 µM,,31.1 ± 3.9 µM,50.5 ± 6.4 µM,,,13.1 ± 1.7 µM,34.3 ± 5.3 µM,137 ± 21 µM,137 ± 19 µM,> 100 µM,34.3 ± 5.4 µM,137 ± 21 µM,53.9 ± 6.9 µM,39.6 ± 5.1 µM,"Minimum Inhibitory Concentration (MIC) [2]: –; selectivity index (SI) (DU-145 [5]; [29]): ns (ns—no selectivity); Minimum bactericidal and fungicidal concentrations (MBC, MFC) ([6]; Bc): –; selectivity index (SI) (Hep G2 [8]; [29]): ns (ns—no selectivity); selectivity index (SI) (M-HeLa [26]): 1.5; Minimum Inhibitory Concentration (MIC) [11]: –; Minimum bactericidal and fungicidal concentrations (MBC, MFC) [11]: –; MBC (MRSA-1): 137 ± 18 µM; selectivity index (SI) (PANC-1 [14]): 1.2; selectivity index (SI) (MCF-7 [16]): 1.2; Minimum Inhibitory Concentration (MIC) [17]: –; Minimum bactericidal and fungicidal concentrations (MBC, MFC) [17]: –; Minimum Inhibitory Concentration (MIC) [21]: –; Minimum bactericidal and fungicidal concentrations (MBC, MFC) [21]: –; selectivity index (SI) (SK-OV-3 [22]; [27]): 1.3; IC50 (PC3 [23]): 34.9 ± 4.5 µM; selectivity index (SI) (PC3 [24]): 1.3; selectivity index (SI) (HuTu 80 [25]): 3.5"
"COc1cccc2c1C(=O)c1c(O)c3c(c(O)c1C2=O)C[C@@](O)(C(=O)CO)C[C@@H]3O[C@H]1C[C@H](N)[C@H](O)[C@H](C)O1 [doxorubicin, reference compound]",1 ± 0.09 µM,,,6.7 ± 0.5 µM,0.4 ± 0.03 µM,,,2.1 ± 0.1 µM,,,,0.2 ± 0.01 µM,,,,0.7 ± 0.06 µM,,,0.2 ± 0.01 µM,2.2 ± 0.1 µM,IC50 (DU-145 [9]; read-out: Cytotoxic Effects (IC50)): 0.3 ± 0.02 µM
